Experiments:
Assay type in all cases: cell-based
[1] = system: human platelet-rich plasma (PRP); test: Convulxin-induced aggregation assay (cuvette light transmittance); settings: 125-250 ng/mL Convulxin, read-out: IC50, inhibition of convulxin-induced aggregation of platelet rich plasma
Procedure: For preparation of human platelet-rich plasma (PRP) for aggregation assays, human venous blood was collected from healthy, drug-free volunteers into 0.38% sodium citrate (0.013 M, pH 7.0 final). PRP was prepared by centrifugation of whole blood at 160×g for 20 minutes at room temperature. The PRP layer was removed, transferred to a new tube, and the platelet count was adjusted, if necessary, to achieve a platelet concentration of ˜3×10^8 platelets/mL using platelet-poor plasma (PPP). PPP was prepared by centrifugation of the remaining blood sample (after removal of PRP) for 20 minutes at 800×g. This preparation of PRP may be subsequently used for aggregation assays in either a 96-well plate or standard cuvette aggregometry.
Inhibition of Convulxin-induced aggregation was determined by cuvette light transmittance aggregation assays. Serial dilutions (1:2) of test compounds were prepared in 30% DMSO in a 96-well V-bottom plate (final DMSO concentration in the cuvette was 0.3%). The test compound (5 μl of serial dilutions in DMSO) was preincubated with PRP for 20 minutes prior to initiation of the aggregation reactions, which were performed in a ChronoLog aggregometer by addition of agonist (125-250 ng/mL Convulxin) to 495 μL of PRP at 37° C. The aggregation reaction was recorded for 4 minutes, and the maximum extent of aggregation was determined by the difference in extent of aggregation at baseline, compared to the maximum aggregation that occurred during the 4 minute period of the assay. Inhibition of aggregation was calculated as the maximum aggregation observed in the presence of inhibitor, compared to that in the absence of inhibitor. IC50s were derived by non-linear regression analysis.

[2] = system: IL-4 induced STAT-6 phosphorylation (JAK1/JAK3) in Ramos B-cells; test: JAK3/STAT6 cellular assay: IL-4 induced STAT-6 phosphorylation, intracellular flow cytometry; settings: Homo sapiens, Ramos B-cells pre-treated 1 hour, IL-4 10 minutes
Source text: Similar types of assays can be used to assess JAK kinase inhibitory activity and to determine the degree of selectivity of the particular compound as compared to Syk kinase. One means of assaying for such inhibition is detection of the effect of the compounds of the present invention on the upregulation of downstream gene products. In the Ramos/IL4 assay, B-cells are stimulated with the cytokine Interleukin-4 (IL-4) leading to the activation of the JAK/Stat pathway through phosphorylation of the JAK family kinases, JAK1 and JAK3, which in turn phosphorylate and activate the transcription factor Stat-6. […] To study the effect of inhibitors (e.g., the 2,4-substituted pyrimindinediamine compounds described herein) on the JAK1 and JAK3 kinases, human Ramos B-cells are stimulated with human IL-4. 10′ post-stimulation, cells are subjected to intracellular flow cytometry to measure the extent of STAT-6 phosphorylation. 20 to 24 hours post-stimulation, cells are stained for upregulation of CD23 and analyzed using flow cytometry.
Stimulation of Ramos B-cells by IL-4 leads to signaling through JAK1/JAK3 resulting in phosphorylation of STAT6 (signal transducers and activators of transcription). The effect of compounds on inhibition of JAK3 and/or JAK1 can be assessed by measuring the amount of phosphorylated STAT6. This may be performed by Western blotting and/or intracellular flow cytometry using a specific phospho-STAT6 antibody. Data describing compound inhibition of IL-4 induced STAT-6 phosphorylation (measured by intracellular flow cytometry) for Compound 1-1 (Example 1) is presented in the following table.
For the data in the above Table, Ramos B-cells were pre-treated for 1 hour with increasing concentrations of Compound 1-1, as indicated prior to addition of IL-4. Cells were incubated with IL-4 for 10 minutes, and then subjected to intracellular flow cytometry to measure the percent inhibition of IL-4 induced Stat-6, as shown.

human washed platelets = test: Inhibition of Convulxin-mediated platelet calcium mobilization in vitro; settings: 125 ng/mL Convulxin
Procedure: Inhibition of Convulxin-induced calcium mobilization was determined in human washed platelets using the FLIPR Calcium 3 Assay Kit (Molecular Devices, Sunnyvale, Calif.). For preparation of washed platelets, human venous blood was collected from healthy, drug-free volunteers into ACD (85 mM sodium citrate, 111 mM glucose, 71.4 mM citric acid) containing PGI2 (1.25 mL ACD containing 0.2 μM PGI2 final; PGI2 from Sigma, St. Louis, Mo.). Platelet-rich plasma (PRP) was prepared by centrifugation at 160×g for 20 minutes at room temperature. Washed platelets were prepared by centrifuging PRP for 10 minutes at 730×g and resuspending the platelet pellet in CGS (13 mM sodium citrate, 30 mM glucose, 120 mM NaCl; 2 mL CGS/10 mL original blood volume). The wash in CGS was repeated a second time, the platelets were collected by centrifugation at 730 g for 10 minutes and resuspended at a concentration of 3×10^8 platelets/mL in Hepes-Tyrode's buffer (10 mM Hepes, 138 mM NaCl, 5.5 mM glucose, 2.9 mM KCl, 12 mM NaHCO3, pH 7.4). This platelet suspension was allowed to rest for 45 minutes at room temperature before use in calcium mobilization assays.
For 96-well plate calcium-mobilization experiments, equal volumes of 3×10^8 washed platelets/mL were incubated with equal volumes of Calcium-3 Assay Reagent A resuspended in 1× Hank's Balanced Salt Solution, pH 7.4, 20 mM Hepes buffer. The total reaction volume of 0.2 mL/well included 1.5×10^8/mL washed platelet/Calcium-3 Assay reagent A mix, 10 μM Eptifibatide (Millennium Pharmaceuticals Inc, Cambridge, Mass.) and serial dilutions (1:3) of test compounds in 0.75% DMSO. DMSO alone was added to 1 well of each 8 set to allow for a maximal calcium-mobilization reading. After a 20 minute preincubation at room temperature, the 96-well microplate reader was loaded into the FlexStation (Molecular Devices, Sunnyvale, Calif.). The FlexStation experimental conditions for measuring calcium mobilization were set up using SOFTMax Pro. The settings used were as follows: Fluorescence parameters-assay mode: flex, excitation 485 nm, 525 nM with a cut-off of 515 nM; Parameters—PMT sensitivity-6, pipette height 230 μl, read time 2 minutes and 40 seconds, read intervals 2 seconds, temperature-23-25° C. After 18 seconds of baseline reading, calcium mobilization was initiated by the addition of Convulxin to a final concentration of 125 ng/mL. Inhibition of calcium mobilization was calculated as the maximum response observed in the presence of inhibitor, compared to that in the absence of inhibitor. IC50s were then derived by non-linear regression analysis.

With `CC(=O)N1CCN(c2ccc(Nc3nc(Nc4ccc5cn[nH]c5c4)c4cc[nH]c4n3)cc2)CC1` [Compound 1-1, 1-(4-(4-(4-(1H-indazol-6-ylamino)-7H-pyrrolo[2,3-d]pyrimidin-2-ylamino)phenyl)piperazin-1-yl)ethanone] the IC50 [1] was ≤ 50 µM, the inhibition at 0.05 µM ([2]; 0.05 μM compound) was 0% and the inhibition at 0.125 µM ([2]; 0.125 μM compound) was 6%. It also gave an inhibition at 0.25 µM ([2]; 0.25 μM compound) of 22%, an inhibition at 0.5 µM ([2]; 0.5 μM compound) of 33% and an inhibition at 1 µM ([2]; 1 μM compound) of 41%. For the same molecule, the inhibition at 2 µM ([2]; 2 μM compound) was 49% and the IC50 (human washed platelets) was < 1000 nM.
